# Source: the supplement of paper PMC10307832
# Columns and labels:
# Experiment in all cases: relative viability (nuclei count vs DMSO), 5 days (fraction); higher = more cells survive
# Tanzisertib + OSI-027 = compound: O[C@H]1CC[C@H](Nc2ncc3nc(Nc4c(F)cc(F)cc4F)n([C@H]4CCOC4)c3n2)CC1 [Tanzisertib] + COc1cccc2cc(-c3nc([C@H]4CC[C@H](C(=O)O)CC4)n4ncnc(N)c34)[nH]c12 [OSI-027] (partner 0.5 µM)
# Method in brief: (§1)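 Lung cancer cell lines were pin-tool dosed in 1536-well plates on the day after seeding, with either a lone drug or a fixed anchor-drug dose plus five library-drug doses (not always all listed) in √10 steps. Nuclei were counted on 4× images after 5 days. Relative viability is the ratio of treated-well to vehicle-well nuclei counts, with each value a median of duplicate plates.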
# [1] = compound: C1CNCCC1C2=CC(=NN2)C3=CC=NC=C3 + O=C(CCCCCCC(=O)Nc1ccccc1)NO [Vorinostat] (partner 1 µM)
# Method in brief: as §1
# Tanzisertib + Crizotinib = compound: O[C@H]1CC[C@H](Nc2ncc3nc(Nc4c(F)cc(F)cc4F)n([C@H]4CCOC4)c3n2)CC1 [Tanzisertib] + C[C@@H](Oc1cc(-c2cnn(C3CCNCC3)c2)cnc1N)c1c(Cl)ccc(F)c1Cl [Crizotinib] (partner 1 µM)
# Method in brief: as §1
Cell Line,relative viability (Tanzisertib + OSI-027; first compound 0.08 µM),relative viability (Tanzisertib + OSI-027; first compound 0.253 µM),relative viability (Tanzisertib + OSI-027; first compound 0.8 µM),relative viability (Tanzisertib + OSI-027; first compound 2.53 µM),relative viability (Tanzisertib + OSI-027; first compound 8 µM),relative viability ([1]; first compound 0.08 µM),relative viability ([1]; first compound 0.8 µM),relative viability ([1]; first compound 2.53 µM),relative viability ([1]; first compound 8 µM),relative viability (Tanzisertib + Crizotinib; first compound 0.08 µM),relative viability (Tanzisertib + Crizotinib; first compound 0.253 µM),relative viability (Tanzisertib + Crizotinib; first compound 0.8 µM),relative viability (Tanzisertib + Crizotinib; first compound 2.53 µM),relative viability (Tanzisertib + Crizotinib; first compound 8 µM)
NCI-H1355,0.479,0.425,0.445,0.423,0.371,0.637,0.629,0.788,0.637,1.12,1.11,1.06,1.08,1.06
EKVX,0.872,0.749,0.613,0.612,0.598,0.78,0.82,0.861,0.737,0.895,0.867,0.967,0.898,0.853
NCI-H441,0.855,0.505,0.467,0.444,0.403,0.593,0.944,0.783,0.77,0.94,0.811,0.505,0.647,0.78
NCI-H1975,0.926,0.773,0.671,0.673,0.587,0.74,0.758,0.702,0.685,0.892,1,0.954,0.935,0.915
HCC-78,0.344,0.376,0.396,0.382,0.316,0.404,,0.441,0.475,0.287,0.331,0.313,0.332,0.286
NCI-H2085,0.937,0.666,0.804,0.705,0.515,0.858,,0.809,0.845,0.875,0.805,0.819,0.889,0.93
H3255,0.513,0.644,0.659,0.479,0.48,0.95,,0.995,0.937,0.933,0.855,1.01,0.875,0.662
NCI-H2087,0.564,0.578,0.712,0.521,0.338,0.682,0.8,0.738,0.684,0.717,0.918,0.889,0.899,1.06
LC-2-ad,1.02,0.744,0.911,0.915,0.606,0.723,0.757,0.741,0.658,0.521,0.501,0.415,0.43,0.426
PC-3 [JPC-3],0.862,0.721,0.833,0.789,0.699,0.94,0.797,0.881,0.834,0.969,1.05,0.989,0.971,0.994
EBC-1,,,,,,,,,,0.206,0.168,0.195,0.178,0.185
HCC-15,0.834,0.652,0.735,0.606,0.327,0.844,0.871,0.845,0.877,0.877,0.811,0.88,0.818,0.872
NCI-H1563,0.789,0.731,0.722,0.731,0.704,,,,,0.85,0.937,0.869,0.966,0.79
COR-L 105,0.663,0.686,0.682,0.631,0.444,0.805,0.916,1.07,0.964,0.81,0.986,0.822,0.855,0.622
NCI-H520,0.328,0.246,0.238,0.262,0.304,0.677,0.777,0.746,0.7,0.862,0.821,0.745,0.68,0.863
LU99A,0.305,0.316,0.296,0.29,0.302,0.465,0.45,0.528,0.554,0.557,0.567,0.513,0.638,0.586
NCI-H1666,0.877,0.869,0.944,0.834,0.786,0.964,1.06,1.07,1.08,0.902,0.934,1.09,1.03,1.09
NCI-H2170,0.765,0.771,0.729,0.735,0.588,0.658,0.825,0.771,0.762,1.42,1.18,1.16,1.09,1.02
NCI-H522,0.802,0.831,0.748,0.696,0.626,0.911,0.762,0.998,1.04,,,,,
LCLC-97TM1,0.541,0.435,0.495,0.368,0.517,0.749,0.701,0.909,0.653,,0.331,0.417,0.262,0.427
NCI-H1299,,,,,,,,,,0.983,0.972,0.968,0.984,1.05
NCI-H3122,1.26,0.869,0.939,0.955,0.946,0.717,0.994,1.05,1.12,0.302,0.306,0.288,0.292,0.293
NCI-H1395,0.697,0.714,0.622,0.692,0.518,0.668,0.597,0.842,0.792,,,,,
NCI-H2009,0.776,0.668,0.594,0.73,0.705,0.754,0.693,0.8,0.728,1.04,1.13,1.02,1.12,1.06
NCI-H1651,0.712,0.58,0.833,0.614,0.678,0.512,0.581,0.577,0.589,0.851,0.817,0.882,0.833,0.921
HARA,0.74,0.496,0.537,0.45,0.0888,0.669,0.62,0.527,0.481,1.12,1.05,1.06,1.06,1.08
